Assay: Selection of antimicrobial agents: solubility in aqueous solution, stability, compatibility with the coating composition
Settings: 20 wt. % in aqueous solution, during storage

With `N=C(NCCCCCCNC(=N)NC(=N)Nc1ccc(Cl)cc1)NC(=N)Nc1ccc(Cl)cc1.O=C(O)[C@H](O)[C@@H](O)[C@H](O)[C@H](O)CO.O=C(O)[C@H](O)[C@@H](O)[C@H](O)[C@H](O)CO` [Chlorhexidine gluconate, chlorhexidine gluconate] the “colour of solution over time” value was “turned dark brown”.
